Test results published in patent US7807439B2, “Staphylococcus aureus-specific detection media and identifying and/or counting method using same” (Biomerieux S.A., priority 2001, dated 2010).

Key:
Test in all cases: Experiment 1: chromogenic α-glucosidase substrates in gelled medium, colony coloration
Conditions in all cases: substrate 100 mg/l
S. intermedius 075 = type: cell-based, Staphylococcus intermedius; design: key to I (intensity of coloration): 0 corresponds to a lack of activity; 0.1 corresponds to the presence of a trace of coloration; 0.5 corresponds to the presence of a very pale coloration; 1 corresponds to the presence of a clear coloration of weak intensity; 1.5 corresponds to the presence of a coloration which is intermediate between colorations 1 and 2; 2 corresponds to the presence of a true coloration of medium intensity; 2.5 corresponds to the presence of a coloration which is intermediate between colorations 2 and 3; 3 corresponds to the presence of an intense coloration; 3.5 corresponds to the presence of a coloration which is intermediate between colorations 3 and 4; 4 corresponds to the presence of a very intense coloration; key to C (coloration of the colonies): —: the symbol “−” is synonymous with a lack of colour or intensity
Protocol: (§1) The α-glucosidase substrates are solubilized in dimethyl sulfoxide at a concentration of 200 g/l. A sufficient volume to obtain a final concentration of substrate of 100 mg/l is added to the four molten media. Microorganisms derived from the bioMérieux internal collection were seeded onto each one of the media, on their own as three dials, using a suspension at 0.5 MacFarland. However, results obtained with microorganisms derived from collections available to the public, ATCC or NCTC for example, would give identical results. The dishes were incubated at 37° C. for 48 hours. The colonies were examined visually after an incubation time of 24 and 48 hours. The coloration and also the intensity of this coloration were noted.
(§2) In table 2 below, as in the tables which will follow, C represents the coloration of the colonies after incubation, I represents the intensity of this coloration, the symbol “−” is synonymous with a lack of colour or intensity, and, finally, TI defines the incubation time. It should be noted that the intensity of the coloration is an arbitrary scale, but which is common to all the biological samples and all the media tested. This scale is valid for this experiment and also for all the experiments which will follow. It can be defined in the following way: • 0 corresponds to a lack of activity, • 0.1 corresponds to the presence of a trace of coloration, • 0.5 corresponds to the presence of a very pale coloration, • 1 corresponds to the presence of a clear coloration of weak intensity, • 1.5 corresponds to the presence of a coloration which is intermediate between colorations 1 and 2, • 2 corresponds to the presence of a true coloration of medium intensity, • 2.5 corresponds to the presence of a coloration which is intermediate between colorations 2 and 3, • 3 corresponds to the presence of an intense coloration • 3.5 corresponds to the presence of a coloration which is intermediate between colorations 3 and 4, • 4 corresponds to the presence of a very intense coloration.

S. xylosus 008 = type: cell-based, Staphylococcus xylosus; design: key to I (intensity of coloration): 0 corresponds to a lack of activity; 0.1 corresponds to the presence of a trace of coloration; 0.5 corresponds to the presence of a very pale coloration; 1 corresponds to the presence of a clear coloration of weak intensity; 1.5 corresponds to the presence of a coloration which is intermediate between colorations 1 and 2; 2 corresponds to the presence of a true coloration of medium intensity; 2.5 corresponds to the presence of a coloration which is intermediate between colorations 2 and 3; 3 corresponds to the presence of an intense coloration; 3.5 corresponds to the presence of a coloration which is intermediate between colorations 3 and 4; 4 corresponds to the presence of a very intense coloration; key to C (coloration of the colonies): —: the symbol “−” is synonymous with a lack of colour or intensity
Protocol: as §1, §2

S. saprophyticus 064 = type: cell-based, Staphylococcus saprophyticus; design: key to I (intensity of coloration): 0 corresponds to a lack of activity; 0.1 corresponds to the presence of a trace of coloration; 0.5 corresponds to the presence of a very pale coloration; 1 corresponds to the presence of a clear coloration of weak intensity; 1.5 corresponds to the presence of a coloration which is intermediate between colorations 1 and 2; 2 corresponds to the presence of a true coloration of medium intensity; 2.5 corresponds to the presence of a coloration which is intermediate between colorations 2 and 3; 3 corresponds to the presence of an intense coloration; 3.5 corresponds to the presence of a coloration which is intermediate between colorations 3 and 4; 4 corresponds to the presence of a very intense coloration; key to C (coloration of the colonies): —: the symbol “−” is synonymous with a lack of colour or intensity
Protocol: as §1, §2

S. epidermidis 009 = type: cell-based, Staphylococcus epidermidis; design: key to I (intensity of coloration): 0 corresponds to a lack of activity; 0.1 corresponds to the presence of a trace of coloration; 0.5 corresponds to the presence of a very pale coloration; 1 corresponds to the presence of a clear coloration of weak intensity; 1.5 corresponds to the presence of a coloration which is intermediate between colorations 1 and 2; 2 corresponds to the presence of a true coloration of medium intensity; 2.5 corresponds to the presence of a coloration which is intermediate between colorations 2 and 3; 3 corresponds to the presence of an intense coloration; 3.5 corresponds to the presence of a coloration which is intermediate between colorations 3 and 4; 4 corresponds to the presence of a very intense coloration; key to C (coloration of the colonies): —: the symbol “−” is synonymous with a lack of colour or intensity
Protocol: as §1, §2

S. aureus 004 = type: cell-based, Staphylococcus aureus; design: key to I (intensity of coloration): 0 corresponds to a lack of activity; 0.1 corresponds to the presence of a trace of coloration; 0.5 corresponds to the presence of a very pale coloration; 1 corresponds to the presence of a clear coloration of weak intensity; 1.5 corresponds to the presence of a coloration which is intermediate between colorations 1 and 2; 2 corresponds to the presence of a true coloration of medium intensity; 2.5 corresponds to the presence of a coloration which is intermediate between colorations 2 and 3; 3 corresponds to the presence of an intense coloration; 3.5 corresponds to the presence of a coloration which is intermediate between colorations 3 and 4; 4 corresponds to the presence of a very intense coloration
Protocol: as §1, §2

S. aureus 276 = type: cell-based, Staphylococcus aureus; design: key to I (intensity of coloration): 0 corresponds to a lack of activity; 0.1 corresponds to the presence of a trace of coloration; 0.5 corresponds to the presence of a very pale coloration; 1 corresponds to the presence of a clear coloration of weak intensity; 1.5 corresponds to the presence of a coloration which is intermediate between colorations 1 and 2; 2 corresponds to the presence of a true coloration of medium intensity; 2.5 corresponds to the presence of a coloration which is intermediate between colorations 2 and 3; 3 corresponds to the presence of an intense coloration; 3.5 corresponds to the presence of a coloration which is intermediate between colorations 3 and 4; 4 corresponds to the presence of a very intense coloration
Protocol: as §1, §2

S. aureus 070 = type: cell-based, Staphylococcus aureus; design: key to I (intensity of coloration): 0 corresponds to a lack of activity; 0.1 corresponds to the presence of a trace of coloration; 0.5 corresponds to the presence of a very pale coloration; 1 corresponds to the presence of a clear coloration of weak intensity; 1.5 corresponds to the presence of a coloration which is intermediate between colorations 1 and 2; 2 corresponds to the presence of a true coloration of medium intensity; 2.5 corresponds to the presence of a coloration which is intermediate between colorations 2 and 3; 3 corresponds to the presence of an intense coloration; 3.5 corresponds to the presence of a coloration which is intermediate between colorations 3 and 4; 4 corresponds to the presence of a very intense coloration
Protocol: as §1, §2

C (coloration of the colonies) (S. intermedius 075; TI 24 h) | I (intensity of coloration) (S. intermedius 075; TI 24 h) | C (coloration of the colonies) (S. intermedius 075; TI 48 h) | I (intensity of coloration) (S. intermedius 075; TI 48 h) | C (coloration of the colonies) (S. xylosus 008; TI 24 h) | I (intensity of coloration) (S. xylosus 008; TI 24 h) | C (coloration of the colonies) (S. xylosus 008; TI 48 h) | I (intensity of coloration) (S. xylosus 008; TI 48 h) | C (coloration of the colonies) (S. saprophyticus 064; TI 24 h) | I (intensity of coloration) (S. saprophyticus 064; TI 24 h) | C (coloration of the colonies) (S. saprophyticus 064; TI 48 h) | I (intensity of coloration) (S. saprophyticus 064; TI 48 h) | C (coloration of the colonies) (S. epidermidis 009; TI 24 h) | I (intensity of coloration) (S. epidermidis 009; TI 24 h) | C (coloration of the colonies) (S. epidermidis 009; TI 48 h) | I (intensity of coloration) (S. epidermidis 009; TI 48 h) | C (coloration of the colonies) (S. aureus 004; TI 24 h) | I (intensity of coloration) (S. aureus 004; TI 24 h) | C (coloration of the colonies) (S. aureus 004; TI 48 h) | I (intensity of coloration) (S. aureus 004; TI 48 h) | Compound | further results
— | 0 | pink | 0.5 | — | 0 | pink | 0.5 | — | 0 | — | 0 | — | 0 | — | 0 | pink | 1 | pink | 1 | OC[C@H]1O[C@H](Oc2c[nH]c3cc(Cl)ccc23)[C@H](O)[C@@H](O)[C@@H]1O [Pink-a-GLU, 6-Chloro-3-indoxyl-α-D-glucoside] | C (coloration of the colonies) (S. aureus 276; TI 24 h): pink; I (intensity of coloration) (S. aureus 276; TI 24 h): 1.5; C (coloration of the colonies) (S. aureus 276; TI 48 h): pink; I (intensity of coloration) (S. aureus 276; TI 48 h): 1.5; C (coloration of the colonies) (S. aureus 070; TI 24 h): pink; I (intensity of coloration) (S. aureus 070; TI 24 h): 2; C (coloration of the colonies) (S. aureus 070; TI 48 h): pink; I (intensity of coloration) (S. aureus 070; TI 48 h): 2
— | 0 | pink | 1.5 | — | 0 | pink | 2.5 | — | 0 | — | 0 | — | 0 | — | 0 | pink | 0.5 | pink | 2.5 | OC[C@H]1O[C@H](Oc2c[nH]c3cc(Br)ccc23)[C@H](O)[C@@H](O)[C@@H]1O [Red “A” a-GLU, 6-Bromo-3-indoxyl-α-D-glucoside] | C (coloration of the colonies) (S. aureus 276; TI 24 h): pink; I (intensity of coloration) (S. aureus 276; TI 24 h): 2; C (coloration of the colonies) (S. aureus 276; TI 48 h): pink; I (intensity of coloration) (S. aureus 276; TI 48 h): 2; C (coloration of the colonies) (S. aureus 070; TI 24 h): pink; I (intensity of coloration) (S. aureus 070; TI 24 h): 2; C (coloration of the colonies) (S. aureus 070; TI 48 h): pink; I (intensity of coloration) (S. aureus 070; TI 48 h): 2.5

Compound | C (coloration of the colonies) (S. intermedius 075; TI 24 h) | I (intensity of coloration) (S. intermedius 075; TI 24 h) | C (coloration of the colonies) (S. intermedius 075; TI 48 h) | I (intensity of coloration) (S. intermedius 075; TI 48 h) | C (coloration of the colonies) (S. xylosus 008; TI 24 h) | I (intensity of coloration) (S. xylosus 008; TI 24 h) | C (coloration of the colonies) (S. xylosus 008; TI 48 h) | I (intensity of coloration) (S. xylosus 008; TI 48 h) | C (coloration of the colonies) (S. saprophyticus 064; TI 24 h) | I (intensity of coloration) (S. saprophyticus 064; TI 24 h) | C (coloration of the colonies) (S. saprophyticus 064; TI 48 h) | I (intensity of coloration) (S. saprophyticus 064; TI 48 h) | C (coloration of the colonies) (S. epidermidis 009; TI 24 h) | I (intensity of coloration) (S. epidermidis 009; TI 24 h) | C (coloration of the colonies) (S. epidermidis 009; TI 48 h) | I (intensity of coloration) (S. epidermidis 009; TI 48 h) | C (coloration of the colonies) (S. aureus 004; TI 24 h) | I (intensity of coloration) (S. aureus 004; TI 24 h) | C (coloration of the colonies) (S. aureus 004; TI 48 h) | I (intensity of coloration) (S. aureus 004; TI 48 h) | further results
5-bromo-4-chloro-3-indoxyl-α-D-glucoside [X-a-GLU] | turquoise | 0.5 | turquoise | 2 | turquoise | 0.5 | turquoise | 1.5 | — | 0 | turquoise | 0.5 | — | 0 | turquoise | 1 | turquoise | 1 | turquoise | 2 | C (coloration of the colonies) (S. aureus 276; TI 24 h): turquoise; I (intensity of coloration) (S. aureus 276; TI 24 h): 2; C (coloration of the colonies) (S. aureus 276; TI 48 h): turquoise; I (intensity of coloration) (S. aureus 276; TI 48 h): 2; C (coloration of the colonies) (S. aureus 070; TI 24 h): turquoise; I (intensity of coloration) (S. aureus 070; TI 24 h): 1.5; C (coloration of the colonies) (S. aureus 070; TI 48 h): turquoise; I (intensity of coloration) (S. aureus 070; TI 48 h): 1.5
